PubChem BioAssay (NCI)
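A five-concentration, 48-hour dose response in 96-well plates underlies each endpoint, interpolated linearly between surrounding concentrations. Abbreviation: GI50, concentration required for 50% inhibition of growth. The concentration for full growth arrest is given as TGI.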

Columns and labels:
Assay in all cases: DTP human tumour cell line panel, 48 h
[1] = test system: HCT-116 colon
[2] = test system: HL-60(TB) leukemia
[3] = test system: NCI-H226 lung
[4] = test system: RPMI-8226 leukemia
[5] = test system: SK-MEL-28 melanoma
[6] = test system: SNB-75 CNS
[7] = test system: SR leukemia
[8] = test system: SW-620 colon
[9] = test system: UACC-257 melanoma
[10] = test system: UACC-62 melanoma

| Structure (SMILES) | GI50 [1] [µM] | TGI [1] [µM] | GI50 [2] [µM] | TGI [2] [µM] | GI50 [3] [µM] | TGI [3] [µM] | GI50 [4] [µM] | TGI [4] [µM] | GI50 [5] [µM] | TGI [5] [µM] | GI50 [6] [µM] | TGI [6] [µM] | GI50 [7] [µM] | TGI [7] [µM] | GI50 [8] [µM] | TGI [8] [µM] | GI50 [9] [µM] | TGI [9] [µM] | GI50 [10] [µM] | TGI [10] [µM] |
| --- | --- | --- | --- | --- | --- | --- | --- | --- | --- | --- | --- | --- | --- | --- | --- | --- | --- | --- | --- | --- |
| OCc1ccc(-c2ccc(-c3ccc(CO)o3)[se]2)o1 | 69.4 | > 100 | 39.7 | > 100 | 0.3 | 1.55 | 33.7 | > 100 | > 100 | > 100 | 37 | > 100 | > 69.2 | > 100 | > 100 | > 100 | 1.49 | > 20.8 | 8.72 | > 100 |
| COc1cc(C#Cc2ccc(=O)oc2C#Cc2ccccc2)cc(OC)c1OC | 2.04 | 4.57 | 4.62 | 40.1 | 2.59 | 7.41 | 2.33 | 17.7 | 2.64 | 7.22 | 2.7 | 7.62 | 1.84 | > 31.3 | 2.04 | 4.28 | 6.81 | 15.6 | 3.89 | 9.18 |
| Clc1nc(Cl)c2ncn(Cc3cccc(Cn4cnc5c(Cl)nc(Cl)nc54)c3)c2n1 | 2.45 | 6.28 | 2.9 | 82.8 | 4.76 | 26.8 | 2.59 | 11.1 | 4.25 | 22.1 | 5.58 | 22.6 | 2.94 | 8.41 | 1.82 | 3.34 | 4.78 | 17.2 | 2.41 | 5.91 |
| COC(=O)CCc1c[nH]c2ccc(N(CCCl)CCCl)cc12 | 2.18 | > 58.9 | 0.429 | > 100 | 1.53 | 41 | 3.05 | > 55.9 | 10.5 | 33.6 | 1.04 | 11.6 | 0.416 | > 100 | 3.41 | 37 | 5.21 | 34.3 | 1.72 | 16.6 |
| [Cl][Hg][Cl] | 18 | 33.4 | 3.24 | 10.1 | 25.1 | 47.7 | 20 | > 60.3 | 15.3 | 29.8 | 18 | 34.8 | 1.72 | – | 5.4 | 40.2 | 17.7 | 34.9 | 13.2 | 27.3 |
| Cc1[nH]c2ccccc2c1C(=O)CC1(O)C(=O)Nc2ccccc21 (centres undefined) | – | > 100 | – | > 100 | – | > 100 | – | > 100 | – | > 100 | – | > 100 | – | > 100 | – | > 100 | – | > 100 | – | > 100 |
| CN(C)CCCOc1ccc(-c2ccc3ncc4c(c3c2)n(C2CCOCC2)c(=O)n4C)cn1 | 3.12 | 16.6 | 2.48 | 15.9 | 1.73 | 15.2 | 1.1 | 8.63 | 1.97 | 13 | 0.396 | 6.45 | 3.01 | 15.6 | 2.81 | 21.1 | 1.94 | 12.2 | 2.73 | 13.8 |
| CO[C@H]1/C=C/O[C@@]2(C)Oc3c(C)c(O)c4c(c3C2=O)C(=O)C(/C=N/N(c2ccccc2)c2ccccc2)=C(NC(=O)/C(C)=C\C=C\[C@H](C)[C@H](O)[C@@H](C)[C@@H](O)[C@@H](C)[C@H](OC(C)=O)[C@@H]1C)C4=O | 1.47 | 2.96 | 2.17 | 4.7 | 1.97 | 3.98 | 1.43 | 4.31 | 1.71 | 3.36 | 1.38 | 2.72 | 2.43 | 5.77 | 1.83 | 3.61 | 1.84 | 3.9 | 1.51 | 2.92 |
